Assay results published in BigSolDB 2.1.

CN(C/C=C/C#CC(C)(C)C)Cc1cccc2ccccc12.Cl
solubility (mole fraction) (in DMSO, 293.15 K): 0.0199 | solubility (mole fraction) (in DMSO, 298.15 K): 0.0226 | solubility (mole fraction) (in DMSO, 303.15 K): 0.0252 | solubility (mole fraction) (in DMSO, 308.15 K): 0.0284 | solubility (mole fraction) (in DMSO, 313.15 K): 0.0319 | solubility (mole fraction) (in DMSO, 318.15 K): 0.0354 | solubility (mole fraction) (in DMSO, 323.15 K): 0.0401 | solubility (mole fraction) (in acetonitrile, 283.15 K): 0.0013 | solubility (mole fraction) (in acetonitrile, 288.15 K): 0.00153 | solubility (mole fraction) (in acetonitrile, 293.15 K): 0.00179 | solubility (mole fraction) (in acetonitrile, 298.15 K): 0.00213 | solubility (mole fraction) (in acetonitrile, 303.15 K): 0.00254 | solubility (mole fraction) (in acetonitrile, 308.15 K): 0.00304 | solubility (mole fraction) (in acetonitrile, 313.15 K): 0.00377 | solubility (mole fraction) (in acetonitrile, 318.15 K): 0.00455 | solubility (mole fraction) (in acetonitrile, 323.15 K): 0.00532 | solubility (mole fraction) (in cyclohexanol, 303.15 K): 0.0381 | solubility (mole fraction) (in cyclohexanol, 308.15 K): 0.048 | solubility (mole fraction) (in cyclohexanol, 313.15 K): 0.0556 | solubility (mole fraction) (in cyclohexanol, 318.15 K): 0.0654 | solubility (mole fraction) (in cyclohexanol, 323.15 K): 0.0774 | solubility (mole fraction) (in ethanol, 283.15 K): 0.0198 | solubility (mole fraction) (in ethanol, 288.15 K): 0.0222 | solubility (mole fraction) (in ethanol, 293.15 K): 0.0245 | solubility (mole fraction) (in ethanol, 298.15 K): 0.0298 | solubility (mole fraction) (in ethanol, 303.15 K): 0.0342 | solubility (mole fraction) (in ethanol, 308.15 K): 0.0414 | solubility (mole fraction) (in ethanol, 313.15 K): 0.0493 | solubility (mole fraction) (in ethanol, 318.15 K): 0.0572 | solubility (mole fraction) (in ethanol, 323.15 K): 0.0678 | solubility (mole fraction) (in isobutanol, 283.15 K): 0.0101 | solubility (mole fraction) (in isobutanol, 288.15 K): 0.0128 | solubility (mole fraction) (in isobutanol, 293.15 K): 0.0159 | solubility (mole fraction) (in isobutanol, 298.15 K): 0.0213 | solubility (mole fraction) (in isobutanol, 303.15 K): 0.0276 | solubility (mole fraction) (in isobutanol, 308.15 K): 0.0354 | solubility (mole fraction) (in isobutanol, 313.15 K): 0.045 | solubility (mole fraction) (in isobutanol, 318.15 K): 0.0559 | solubility (mole fraction) (in isobutanol, 323.15 K): 0.0693 | solubility (mole fraction) (in isooctanol, 283.15 K): 0.00196 | solubility (mole fraction) (in isooctanol, 288.15 K): 0.00403 | solubility (mole fraction) (in isooctanol, 293.15 K): 0.00498 | solubility (mole fraction) (in isooctanol, 298.15 K): 0.00649 | solubility (mole fraction) (in isooctanol, 303.15 K): 0.00867 | solubility (mole fraction) (in isooctanol, 308.15 K): 0.0109 | solubility (mole fraction) (in isooctanol, 313.15 K): 0.0143 | solubility (mole fraction) (in isooctanol, 318.15 K): 0.0178 | solubility (mole fraction) (in isooctanol, 323.15 K): 0.0221 | solubility (mole fraction) (in isopentanol, 283.15 K): 0.0073 | solubility (mole fraction) (in isopentanol, 288.15 K): 0.00942 | solubility (mole fraction) (in isopentanol, 293.15 K): 0.0118 | solubility (mole fraction) (in isopentanol, 298.15 K): 0.0149 | solubility (mole fraction) (in isopentanol, 303.15 K): 0.0189 | solubility (mole fraction) (in isopentanol, 308.15 K): 0.0242 | solubility (mole fraction) (in isopentanol, 313.15 K): 0.0298 | solubility (mole fraction) (in isopentanol, 318.15 K): 0.0389 | solubility (mole fraction) (in isopentanol, 323.15 K): 0.0493 | solubility (mole fraction) (in isopropanol, 283.15 K): 0.0031 | solubility (mole fraction) (in isopropanol, 288.15 K): 0.00391 | solubility (mole fraction) (in isopropanol, 293.15 K): 0.00487 | solubility (mole fraction) (in isopropanol, 298.15 K): 0.00627 | solubility (mole fraction) (in isopropanol, 303.15 K): 0.00831 | solubility (mole fraction) (in isopropanol, 308.15 K): 0.0106 | solubility (mole fraction) (in isopropanol, 313.15 K): 0.0144 | solubility (mole fraction) (in isopropanol, 318.15 K): 0.0183 | solubility (mole fraction) (in isopropanol, 323.15 K): 0.0245 | solubility (mole fraction) (in n-butanol, 283.15 K): 0.0123 | solubility (mole fraction) (in n-butanol, 288.15 K): 0.0168 | solubility (mole fraction) (in n-butanol, 293.15 K): 0.0217 | solubility (mole fraction) (in n-butanol, 298.15 K): 0.0251 | solubility (mole fraction) (in n-butanol, 303.15 K): 0.0313 | solubility (mole fraction) (in n-butanol, 308.15 K): 0.0377 | solubility (mole fraction) (in n-butanol, 313.15 K): 0.0466 | solubility (mole fraction) (in n-butanol, 318.15 K): 0.0568 | solubility (mole fraction) (in n-butanol, 323.15 K): 0.0685 | solubility (mole fraction) (in n-hexanol, 283.15 K): 0.00683 | solubility (mole fraction) (in n-hexanol, 288.15 K): 0.00916 | solubility (mole fraction) (in n-hexanol, 293.15 K): 0.0115 | solubility (mole fraction) (in n-hexanol, 298.15 K): 0.0148 | solubility (mole fraction) (in n-hexanol, 303.15 K): 0.0185 | solubility (mole fraction) (in n-hexanol, 308.15 K): 0.0229 | solubility (mole fraction) (in n-hexanol, 313.15 K): 0.0291 | solubility (mole fraction) (in n-hexanol, 318.15 K): 0.0373 | solubility (mole fraction) (in n-hexanol, 323.15 K): 0.0469 | solubility (mole fraction) (in n-pentanol, 283.15 K): 0.0158 | solubility (mole fraction) (in n-pentanol, 288.15 K): 0.0208 | solubility (mole fraction) (in n-pentanol, 293.15 K): 0.0255 | solubility (mole fraction) (in n-pentanol, 298.15 K): 0.0304 | solubility (mole fraction) (in n-pentanol, 303.15 K): 0.0357 | solubility (mole fraction) (in n-pentanol, 308.15 K): 0.0428 | solubility (mole fraction) (in n-pentanol, 313.15 K): 0.0511 | solubility (mole fraction) (in n-pentanol, 318.15 K): 0.0601 | solubility (mole fraction) (in n-pentanol, 323.15 K): 0.0697 | solubility (mole fraction) (in n-propanol, 283.15 K): 0.0194 | solubility (mole fraction) (in n-propanol, 288.15 K): 0.0214 | solubility (mole fraction) (in n-propanol, 293.15 K): 0.0233 | solubility (mole fraction) (in n-propanol, 298.15 K): 0.027 | solubility (mole fraction) (in n-propanol, 303.15 K): 0.0351 | solubility (mole fraction) (in n-propanol, 308.15 K): 0.0427 | solubility (mole fraction) (in n-propanol, 313.15 K): 0.0519 | solubility (mole fraction) (in n-propanol, 318.15 K): 0.0615 | solubility (mole fraction) (in n-propanol, 323.15 K): 0.0735 | solubility (mole fraction) (in sec-butanol, 283.15 K): 0.0037 | solubility (mole fraction) (in sec-butanol, 288.15 K): 0.0047 | solubility (mole fraction) (in sec-butanol, 293.15 K): 0.00608 | solubility (mole fraction) (in sec-butanol, 298.15 K): 0.0077 | solubility (mole fraction) (in sec-butanol, 303.15 K): 0.00999 | solubility (mole fraction) (in sec-butanol, 308.15 K): 0.0133 | solubility (mole fraction) (in sec-butanol, 313.15 K): 0.0176 | solubility (mole fraction) (in sec-butanol, 318.15 K): 0.0227 | solubility (mole fraction) (in sec-butanol, 323.15 K): 0.0288
